Source: patent US9505768B2, “Compositions and methods for modulating TLR4” (The Regents of the University of California, priority 2012, dated 2016)

Assays:
Type in all cases: cell-based
[1] = molecular target: T1, human TLR4 (Homo sapiens, UniProt O00206+Q9Y6Y9); assay: Human TLR4 HEK Blue NFκB/SEAP reporter assay; conditions: for human TLR4, values normalized to Cmpd 1: hTLR4 HEK293 transfectoma, all compounds tested at 10 μM, Cmpd 1 set at 100
T1 construct: host or cells: HEK293 (HEK Blue) cells with NFκB/SEAP reporter
Experimental: (§1) The above assays were utilized to compare the derivatives of the lead pyrimidoindole for their ability to activate mouse and human TLR4. […] Each cytokine induction curve was first converted to a percent activity curve, and then the AUC of the percent activity curve was calculated. The process of converting to a percent activity curve allowed subtracting background and adjusting for plate-to-plate variation.
(§2) The culture supernatants were harvested after a 20-24 h incubation period. SEAP activity in the supernatants was determined by a colorimetric assay, using either the SEAPorter Assay Kit (Imgenex), with absorbance read at 405 nm, or QuantiBlue (Invivogen), with absorbance read at 630 nm.

[2] = molecular target: T2, mouse TLR4 (Mus musculus, UniProt Q9JHF9+Q9QUK6); assay: Murine TLR4 HEK Blue NFκB/SEAP reporter assay; conditions: for mouse TLR4, area under curve (AUC) values normalized to Cmpd 1: mTLR4 HEK transfectoma, 312 nM to 10 μM, Cmpd 1 set at 100
T2 construct: host or cells: HEK293 (HEK Blue) cells with NFκB/SEAP reporter
T2 sequence (Q9QUK6 26-835): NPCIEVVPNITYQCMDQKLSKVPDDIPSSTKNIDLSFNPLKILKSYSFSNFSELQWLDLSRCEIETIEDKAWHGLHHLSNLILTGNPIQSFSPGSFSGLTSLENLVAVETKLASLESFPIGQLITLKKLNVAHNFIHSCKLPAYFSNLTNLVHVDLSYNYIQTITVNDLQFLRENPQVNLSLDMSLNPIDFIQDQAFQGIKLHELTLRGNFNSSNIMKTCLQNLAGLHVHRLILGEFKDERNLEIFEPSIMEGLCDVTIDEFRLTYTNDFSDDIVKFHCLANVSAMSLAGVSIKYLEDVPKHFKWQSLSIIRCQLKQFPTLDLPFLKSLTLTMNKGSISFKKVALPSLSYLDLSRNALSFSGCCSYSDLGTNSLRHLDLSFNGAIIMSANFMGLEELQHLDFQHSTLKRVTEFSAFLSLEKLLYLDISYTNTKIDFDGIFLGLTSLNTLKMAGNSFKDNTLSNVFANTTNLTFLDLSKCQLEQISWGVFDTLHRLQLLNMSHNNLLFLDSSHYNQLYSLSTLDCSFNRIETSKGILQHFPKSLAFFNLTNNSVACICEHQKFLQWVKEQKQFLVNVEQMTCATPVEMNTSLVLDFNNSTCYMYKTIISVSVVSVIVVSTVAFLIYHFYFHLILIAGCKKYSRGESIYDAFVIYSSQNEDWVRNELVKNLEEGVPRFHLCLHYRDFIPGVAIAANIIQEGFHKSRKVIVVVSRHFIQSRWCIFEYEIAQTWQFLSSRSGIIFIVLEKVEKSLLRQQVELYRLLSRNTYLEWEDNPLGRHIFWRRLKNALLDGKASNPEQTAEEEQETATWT
T2 sequence (Q9JHF9 19-160): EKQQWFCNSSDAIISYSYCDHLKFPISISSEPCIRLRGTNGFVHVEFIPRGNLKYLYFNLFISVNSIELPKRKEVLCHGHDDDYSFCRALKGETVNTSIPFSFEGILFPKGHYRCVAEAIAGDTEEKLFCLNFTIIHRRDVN
Experimental: as §1, §2

[3] = tested on: mouse bone marrow derived dendritic cells (mBMDC); assay: IL-6 induction in mouse bone marrow derived dendritic cells (ELISA); conditions: relative to Cmpd 1 / within series
Experimental: as §1
BMDC were prepared from C57BL/6 mice as described. See e.g., Wu, C. […] BMDC (10^5 cells per well) were plated in 96-well plates in 200 μL of complete RPMI1640 supplemented with 10% fetal calf serum (FCS; Sigma Aldrich), 100 U/mL penicillin, and 100 μg/mL streptomycin (Invitrogen). […] After 18 h incubation, the cell culture supernatants were collected. LPS (purified LPS, Invivogen, San Diego, Calif.) or MPLA (1 μg/mL synthetic MPLA, Invivogen, San Diego, Calif.) were used as positive controls. […] The AUC was calculated from BMDC dose-response curves using Prism 5 (GraphPad, San Diego). Each cytokine induction curve was first converted to a percent activity curve, and then the AUC of the percent activity curve was calculated. The process of converting to a percent activity curve allowed subtracting background and adjusting for plate-to-plate variation.

T1 sequence (O00206 24-839): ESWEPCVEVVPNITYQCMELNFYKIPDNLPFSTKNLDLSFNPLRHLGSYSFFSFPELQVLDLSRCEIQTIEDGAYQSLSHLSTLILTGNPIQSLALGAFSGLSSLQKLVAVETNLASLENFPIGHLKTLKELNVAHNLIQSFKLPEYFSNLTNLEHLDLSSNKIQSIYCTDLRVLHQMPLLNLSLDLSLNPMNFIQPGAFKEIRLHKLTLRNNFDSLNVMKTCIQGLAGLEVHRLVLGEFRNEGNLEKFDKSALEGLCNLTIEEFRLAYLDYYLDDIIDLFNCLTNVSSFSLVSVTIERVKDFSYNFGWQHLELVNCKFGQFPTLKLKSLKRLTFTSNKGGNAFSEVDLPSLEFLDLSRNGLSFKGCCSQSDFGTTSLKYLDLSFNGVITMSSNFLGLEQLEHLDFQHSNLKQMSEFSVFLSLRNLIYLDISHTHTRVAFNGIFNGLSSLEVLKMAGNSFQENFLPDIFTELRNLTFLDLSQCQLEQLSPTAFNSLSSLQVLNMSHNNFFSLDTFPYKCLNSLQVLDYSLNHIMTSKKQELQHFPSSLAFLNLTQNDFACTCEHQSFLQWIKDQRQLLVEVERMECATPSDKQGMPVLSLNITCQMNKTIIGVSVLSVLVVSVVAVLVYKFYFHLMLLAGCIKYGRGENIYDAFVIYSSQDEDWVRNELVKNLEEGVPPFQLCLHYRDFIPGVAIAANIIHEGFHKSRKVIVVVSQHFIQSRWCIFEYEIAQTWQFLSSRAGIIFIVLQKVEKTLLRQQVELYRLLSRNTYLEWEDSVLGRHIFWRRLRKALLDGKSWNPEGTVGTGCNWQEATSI
T1 sequence (Q9Y6Y9 19-160): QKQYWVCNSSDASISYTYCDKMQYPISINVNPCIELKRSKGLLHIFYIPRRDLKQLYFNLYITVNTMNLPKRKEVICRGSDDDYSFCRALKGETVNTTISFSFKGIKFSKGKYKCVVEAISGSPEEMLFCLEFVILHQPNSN

Row | SMILES | human TLR4, values normalized to Cmpd 1 [1] | mouse TLR4, area under curve (AUC) values normalized to Cmpd 1 [2] | IL-6 activity in mBMDC (in words) [3] | human TLR4 reporter cell activation (in words) [1] | mouse TLR4 reporter cell activation (in words) [2]
1 | CCCCCn1c2ccccc2c2nc(SCC(=O)NC3CCCCC3)n(-c3ccccc3)c(=O)c21 [Compound 49, N-cyclohexyl-2-((4-oxo-5-pentyl-3-phenyl-4,5-dihydro-3H-pyrimido[5,4-b]indol-2-yl)thio)acetamide] | 11 | 6 | – | – | –
2 | O=C(CSc1nc2c([nH]c3ccccc32)c(=O)n1C1CCCCC1)NC1CCCC1 [Compound 41, 2-((3-Cyclohexyl-4-oxo-4,5-dihydro-3H-pyrimido[5,4-b]indol-2-yl)thio)-N-cyclopentylacetamide] | 33 | 19 | partial loss of activity | – | –
3 | CN(C(=O)CSc1nc2c3ccccc3n(C)c2c(=O)n1-c1ccccc1)C1CCCCC1 [Compound 43, N-cyclohexyl-N-methyl-2-((5-methyl-4-oxo-3-phenyl-4,5-dihydro-3H-pyrimido[5,4-b]indol-2-yl)thio)acetamide] | <1 | 1 | total loss of IL-6 activity | – | –
4 | O=C(CSc1nc2c([nH]c3ccccc32)c(=O)n1-c1ccccc1)NCc1ccco1 [Compound 19, N-(furan-2-ylmethyl)-2-((4-oxo-3-phenyl-4,5-dihydro-3H-pyrimido[5,4-b]indol-2-yl)thio)acetamide] | 27 | 5 | – | – | –
5 | CC(C)CNC(=O)CSc1nc2c([nH]c3ccccc32)c(=O)n1-c1ccccc1 [Compound 26, N-isobutyl-2-((4-oxo-3-phenyl-4,5-dihydro-3H-pyrimido[5,4-b]indol-2-yl)thio)acetamide] | 21 | 24 | somewhat less active | – | –
6 | CCCCNC(=O)CSc1nc2c([nH]c3ccccc32)c(=O)n1-c1ccccc1 [Compound 23, N-butyl-2-((4-oxo-3-phenyl-4,5-dihydro-3H-pyrimido[5,4-b]indol-2-yl)thio)acetamide] | 32 | 31 | somewhat less active | – | –
7 | CCCCCCCC/C=C\CCCCCCCC(=O)OCC(COP(=O)(O)OCCNC(=O)CSc1nc2c([nH]c3ccccc32)c(=O)n1-c1ccccc1)OC(=O)CCCCCCC/C=C\CCCCCCCC (centres unmarked) [Compound 35, (Z)-3-((hydroxy(2-(2-((4-oxo-3-phenyl-4,5-dihydro-3H-pyrimido[5,4-b]indol-2-yl)thio)acetamido)ethoxy)phosphoryl)oxy)propane-1,2-diyl dioleate] | <1 | <1 | – | – | –
8 | COC(=O)CCCn1c2ccccc2c2nc(SCC(=O)NC3CCCCC3)n(-c3ccccc3)c(=O)c21 [Compound 44, Methyl 4-(2-((2-(cyclohexylamino)-2-oxoethyl)thio)-4-oxo-3-phenyl-3H-pyrimido[5,4-b]indol-5(4H)-yl)butanoate] | 19 | 9 | very little IL-6 | good activity | good activity
9 | NC(=O)Cn1c2ccccc2c2nc(SCC(=O)NC3CCCCC3)n(-c3ccccc3)c(=O)c21 [Compound 52, 2-((5-(2-amino-2-oxoethyl)-4-oxo-3-phenyl-4,5-dihydro-3H-pyrimido[5,4-b]indol-2-yl)thio)-N-cyclohexylacetamide] | 11 | 8 | – | – | –
10 | CCNC(=O)CSc1nc2c([nH]c3ccccc32)c(=O)n1-c1ccccc1 [Compound 22, N-ethyl-2-((4-oxo-3-phenyl-4,5-dihydro-3H-pyrimido[5,4-b]indol-2-yl)thio)acetamide] | 8 | <1 | – | – | –
11 | CCC(CC)NC(=O)CSc1nc2c([nH]c3ccccc32)c(=O)n1-c1ccccc1 [Compound 31, 2-((4-oxo-3-phenyl-4,5-dihydro-3H-pyrimido[5,4-b]indol-2-yl)thio)-N-(pentan-3-yl)acetamide] | 11 | 8 | – | – | –
12 | O=C(CSc1nc2c([nH]c3ccccc32)c(=O)n1-c1ccccc1)NC1CCNCC1 [Compound 34, 2-((4-oxo-3-phenyl-4,5-dihydro-3H-pyrimido[5,4-b]indol-2-yl)thio)-N-(piperidin-4-yl)acetamide] | <1 | <1 | – | – | –
13 | O=C(CSc1nc2c([nH]c3ccccc32)c(=O)n1-c1ccccc1)NC1CCCC1 [Compound 11, N-cyclopentyl-2-((4-oxo-3-phenyl-4,5-dihydro-3H-pyrimido[5,4-b]indol-2-yl)thio)acetamide] | 23 | 28 | – | – | –
14 | CCCCCCNC(=O)CSc1nc2c([nH]c3ccccc32)c(=O)n1-c1ccccc1 [Compound 25, N-hexyl-2-((4-oxo-3-phenyl-4,5-dihydro-3H-pyrimido[5,4-b]indol-2-yl)thio)acetamide] | 8 | 4 | – | – | –
15 | O=C(CSc1nc2c([nH]c3ccccc32)c(=O)n1-c1ccccc1)Nc1nccs1 [Compound 21, 2-((4-oxo-3-phenyl-4,5-dihydro-3H-pyrimido[5,4-b]indol-2-yl)thio)-N-(thiazol-2-yl)acetamide] | 12 | 2 | – | – | –
16 | O=C(CSc1nc2c([nH]c3ccccc32)c(=O)n1-c1ccccc1)Nc1ccc2cn[nH]c2c1 [Compound 20, N-(1H-indazol-6-yl)-2-((4-oxo-3-phenyl-4,5-dihydro-3H-pyrimido[5,4-b]indol-2-yl)thio)acetamide] | <1 | <1 | – | – | –
17 | CCCCCCCCCCCCn1c2ccccc2c2nc(SCC(=O)NC3CCCCC3)n(-c3ccccc3)c(=O)c21 [Compound 50, N-cyclohexyl-2-((5-dodecyl-4-oxo-3-phenyl-4,5-dihydro-3H-pyrimido[5,4-b]indol-2-yl)thio)acetamide] | 10 | 4 | – | – | –
18 | CC(C)(C)NC(=O)CSc1nc2c([nH]c3ccccc32)c(=O)n1-c1ccccc1 [Compound 32, N-(tert-butyl)-2-((4-oxo-3-phenyl-4,5-dihydro-3H-pyrimido[5,4-b]indol-2-yl)thio)acetamide] | 6 | <1 | – | – | –
19 | CCCCCNC(=O)CSc1nc2c([nH]c3ccccc32)c(=O)n1-c1ccccc1 [Compound 24, 2-((4-oxo-3-phenyl-4,5-dihydro-3H-pyrimido[5,4-b]indol-2-yl)thio)-N-pentylacetamide] | 23 | 42 | – | – | –
20 | O=C(CSc1nc2c([nH]c3ccccc32)c(=O)n1-c1ccccc1)Nc1ccc2ccccc2c1 [Compound 18, N-(naphthalen-2-yl)-2-((4-oxo-3-phenyl-4,5-dihydro-3H-pyrimido[5,4-b]indol-2-yl)thio)acetamide] | 21 | 2 | – | – | –
